The source of these data is patent publication US8642590B2, “Alkylcyclohexylethers of dihydrotetraazabenzoazulenes” (Hoffmann-La Roche Inc., priority 2008, dated 2014).

Counter-ions that a name gives are not always drawn.

The target in one assay is T1, human V1a receptor (Homo sapiens, UniProt P37288).
T1 construct: expressed in transfected cells; host or cells: HEK293 cells, transiently transfected; cell membranes prepared
T1 sequence (P37288 whole entry): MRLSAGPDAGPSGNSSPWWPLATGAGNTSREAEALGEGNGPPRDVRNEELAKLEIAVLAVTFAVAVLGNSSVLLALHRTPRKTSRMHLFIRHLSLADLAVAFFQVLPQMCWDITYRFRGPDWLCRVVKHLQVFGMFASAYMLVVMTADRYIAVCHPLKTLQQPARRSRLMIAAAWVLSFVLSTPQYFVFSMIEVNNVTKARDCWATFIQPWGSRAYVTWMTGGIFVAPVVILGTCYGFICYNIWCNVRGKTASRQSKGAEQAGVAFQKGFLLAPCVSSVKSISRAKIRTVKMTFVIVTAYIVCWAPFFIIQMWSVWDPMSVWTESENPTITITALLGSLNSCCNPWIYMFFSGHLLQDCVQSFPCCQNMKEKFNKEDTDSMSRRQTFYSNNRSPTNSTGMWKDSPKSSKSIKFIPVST
The assay can be described thus: human V1a receptor binding study (3H-Vasopressin, SPA beads, HEK293 membranes).
Conditions: not given
As to the method:
The human V1a receptor was cloned by RT-PCR from total human liver RNA. The coding sequence was subcloned in an expression vector after sequencing to confirm the identity of the amplified sequence. […] Cell membranes were prepared from HEK293 cells transiently transfected with the expression vector and grown in 20 liter fermenters with the following protocol.
50 g of cells are resuspended in 30 ml freshly prepared ice cold Lysis buffer (50 mM HEPES, 1 mM EDTA, 10 mM magnesium dichloride adjusted to pH=7.4+complete cocktail of protease inhibitor (Roche Diagnostics)). Homogenized with Polytron for 1 min and sonicated on ice for 2×2 minutes at 80% intensity (Vibracell sonicator). The preparation is centrifuged 20 min at 500 g at 4° C., the pellet is discarded and the supernatant centrifuged 1 hour at 43,000 g at 4° C. (19,000 rpm). The pellet is resuspended in 12.5 ml Lysis buffer+12.5 ml Sucrose 20% and homogenized using a Polytron for 1-2 min. The protein concentration is determined by the Bradford method and aliquots are stored at −80° C. until use. For binding studies 60 mg Yttrium silicate SPA beads (Amersham) are mixed with an aliquot of membrane in binding buffer (50 mM Tris, 120 mM sodium chloride, 5 mM potassium chloride, 2 mM Calcium dichloride, 10 mM magnesium dichloride) for 15 minutes with mixing. 50 μl of bead/membrane mixture is then added to each well of a 96 well plate, followed by 50 μl of 4 nM 3H-Vasopressin (American Radiolabeled Chemicals). For total binding measurement 100 μl of binding buffer are added to the respective wells, for non-specific binding 100 μl of 8.4 mM cold vasopressin and for compound testing 100 μl of a serial dilution of each compound in 2% dimethyl sulfoxide. The plate is incubated 1 h at room temperature, centrifuged 1 min at 1000 g and counted on a Packard Top-Count. Non-specific binding counts are subtracted from each well and data is normalized to the maximum specific binding set at 100%. To calculate an IC 50 the curve is fitted using a non-linear regression model (XLfit) and the Ki is calculated using the Cheng-Prussoff equation.
On to `CC(C)(C)OC(=O)N1Cc2cc(Cl)ccc2-n2c(nnc2[C@H]2CC[C@H](OC3CCC3)CC2)C1` [Example 30, trans-8-Chloro-1-(4-cyclobutoxy-cyclohexyl)-4H,6H-2,3,5,10b-tetraaza-benzo[e]azulene-5-carboxylic acid tert-butyl ester], for which the Ki was 2.82 nM.

The assay is the same for the next values; noted with them: membranes of HEK293 cells transiently transfected with human V1a receptor; 3H-Vasopressin; Ki calculated using the Cheng-Prussoff equation; read-out: pKi (hV1a) (converted).
Turning to `CCO[C@H]1CC[C@H](c2nnc3n2-c2ccc(Cl)cc2CN(C)C3)CC1` [Example 4, trans-8-Chloro-1-(4-ethoxy-cyclohexyl)-5-methyl-5,6-dihydro-4H-2,3,5,10b-tetraaza-benzo[e]azulene], the Ki was 6.76 nM.

In the case of `CCO[C@H]1CC[C@@H](c2nnc3n2-c2ccc(Cl)cc2CN(C(=O)OC(C)(C)C)C3)CC1` [Example 5, cis-8-Chloro-1-(4-ethoxy-cyclohexyl)-4H,6H-2,3,5,10b-tetraaza-benzo[e]azulene-5-carboxylic acid tert-butyl ester], the Ki was 14.1 nM.

Regarding `CCO[C@H]1CC[C@@H](c2nnc3n2-c2ccc(Cl)cc2CNC3)CC1` [Example 6, cis-8-Chloro-1-(4-ethoxy-cyclohexyl)-5,6-dihydro-4H-2,3,5,10b-tetraaza-benzo[e]azulene hydrochloride], the Ki was 891 nM.

As for `CCO[C@H]1CC[C@@H](c2nnc3n2-c2ccc(Cl)cc2CN(C)C3)CC1` [Example 7, cis-8-Chloro-1-(4-ethoxy-cyclohexyl)-5-methyl-5,6-dihydro-4H-2,3,5,10b-tetraaza-benzo[e]azulene], the Ki was 55 nM.

Consider `CC(C)O[C@H]1CC[C@H](c2nnc3n2-c2ccc(Cl)cc2CN(C(=O)OC(C)(C)C)C3)CC1` [Example 8, trans-8-Chloro-1-(4-isopropoxy-cyclohexyl)-4H,6H-2,3,5,10b-tetraaza-benzo[e]azulene-5-carboxylic acid tert-butyl ester], for which the Ki was 1.29 nM.

On to `CC(C)O[C@H]1CC[C@H](c2nnc3n2-c2ccc(Cl)cc2CNC3)CC1` [Example 9, trans-8-Chloro-1-(4-isopropoxy-cyclohexyl)-5,6-dihydro-4H-2,3,5,10b-tetraaza-benzo[e]azulene hydrochloride], for which the Ki was 17.4 nM.

On to `CC(C)O[C@H]1CC[C@H](c2nnc3n2-c2ccc(Cl)cc2CN(C)C3)CC1` [Example 10, trans-8-Chloro-1-(4-isopropoxy-cyclohexyl)-5-methyl-5,6-dihydro-4H-2,3,5,10b-tetraaza-benzo[e]azulene], for which the Ki was 2.82 nM.

For `CC(C)O[C@H]1CC[C@H](c2nnc3n2-c2ccc(Cl)cc2CN(S(C)(=O)=O)C3)CC1` [Example 11, trans-8-Chloro-1-(4-isopropoxy-cyclohexyl)-5-methanesulfonyl-5,6-dihydro-4H-2,3,5,10b-tetraaza-benzoazulene], the Ki is 1.1 nM.

Take `CC(C)O[C@H]1CC[C@H](c2nnc3n2-c2ccc(Cl)cc2CN(CCO)C3)CC1` [Example 12, trans-2-[8-Chloro-1-(4-isopropoxy-cyclohexyl)-4H,6H-2,3,5,10b-tetraaza-benzoazulen-5-yl]-ethanol]: the Ki is 2.29 nM.

For the compound `CC(C)O[C@H]1CC[C@H](c2nnc3n2-c2ccc(Cl)cc2CN(C(C)C)C3)CC1` [Example 13, trans-8-Chloro-1-(4-isopropoxy-cyclohexyl)-5-isopropyl-5,6-dihydro-4H-2,3,5,10b-tetraaza-benzoazulene], the Ki was 1.51 nM.

Regarding `CC(C)O[C@H]1CC[C@H](c2nnc3n2-c2ccc(Cl)cc2CN(S(=O)(=O)N(C)C)C3)CC1` [Example 14, trans-8-Chloro-1-(4-isopropoxy-cyclohexyl)-4H,6H-2,3,5,10b-tetraaza-benzoazulene-5-sulfonic acid dimethylamide], the Ki was 1 nM.

With `CC(C)O[C@H]1CC[C@H](c2nnc3n2-c2ccc(Cl)cc2CN(Cc2ccccn2)C3)CC1` [Example 15, trans-8-Chloro-1-(4-isopropoxy-cyclohexyl)-5-pyridin-2-ylmethyl-5,6-dihydro-4H-2,3,5,10b-tetraaza-benzoazulene], the Ki was 1.41 nM.

For the compound `CC(=O)OCC(=O)N1Cc2cc(Cl)ccc2-n2c(nnc2[C@H]2CC[C@H](OC(C)C)CC2)C1` [Example 16, trans-Acetic acid 2-[8-chloro-1-(4-isopropoxy-cyclohexyl)-4H,6H-2,3,5,10b-tetraaza-benzoazulen-5-yl]-2-oxo-ethyl ester], the Ki is 3.47 nM.

As for `CC(C)O[C@H]1CC[C@H](c2nnc3n2-c2ccc(Cl)cc2CN(C(=O)CO)C3)CC1` [Example 17, trans-1-[8-Chloro-1-(4-isopropoxy-cyclohexyl)-4H,6H-2,3,5,10b-tetraaza-benzoazulen-5-yl]-2-hydroxy-ethanone], the Ki was 3.47 nM.

With `CC(=O)N1Cc2cc(Cl)ccc2-n2c(nnc2[C@H]2CC[C@H](OC(C)C)CC2)C1` [Example 18, trans-1-[8-Chloro-1-(4-isopropoxy-cyclohexyl)-4H,6H-2,3,5,10b-tetraaza-benzoazulen-5-yl]-ethanone], the Ki was 2.51 nM.

Regarding `CC(C)O[C@H]1CC[C@H](c2nnc3n2-c2ccc(F)cc2CN(C(=O)OC(C)(C)C)C3)CC1` [Example 19, trans-8-Fluoro-1-(4-isopropoxy-cyclohexyl)-4H,6H-2,3,5,10b-tetraaza-benzo[e]azulene-5-carboxylic acid tert-butyl ester], the Ki was 3.8 nM.

In the case of `CC(C)O[C@H]1CC[C@H](c2nnc3n2-c2ccc(F)cc2CNC3)CC1` [Example 20, trans-8-Fluoro-1-(4-isopropoxy-cyclohexyl)-5,6-dihydro-4H-2,3,5,10b-tetraaza-benzo[e]azulene hydrochloride], the Ki is 251 nM.

In the case of `CC(C)O[C@H]1CC[C@H](c2nnc3n2-c2ccc(F)cc2CN(C)C3)CC1` [Example 21, trans-8-Fluoro-1-(4-isopropoxy-cyclohexyl)-5-methyl-5,6-dihydro-4H-2,3,5,10b-tetraaza-benzo[e]azulene], the Ki is 29.5 nM.

As for `CC(C)O[C@H]1CC[C@@H](c2nnc3n2-c2ccc(Cl)cc2CN(C(=O)OC(C)(C)C)C3)CC1` [Example 22, cis-8-Chloro-1-(4-isopropoxy-cyclohexyl)-4H,6H-2,3,5,10b-tetraaza-benzo[e]azulene-5-carboxylic acid tert-butyl ester], the Ki is 8.91 nM.

Turning to `CC(C)O[C@H]1CC[C@@H](c2nnc3n2-c2ccc(Cl)cc2CNC3)CC1` [Example 23, cis-8-Chloro-1-(4-isopropoxy-cyclohexyl)-5,6-dihydro-4H-2,3,5,10b-tetraaza-benzo[e]azulene hydrochloride], the Ki is 363 nM.

In the case of `CC(C)O[C@H]1CC[C@@H](c2nnc3n2-c2ccc(Cl)cc2CN(C)C3)CC1` [Example 24, cis-8-Chloro-1-(4-isopropoxy-cyclohexyl)-5-methyl-5,6-dihydro-4H-2,3,5,10b-tetraaza-benzo[e]azulene], the Ki is 26.9 nM.

For `Clc1ccc2c(c1)CNCc1nnc([C@H]3CC[C@H](OC4CCC4)CC3)n1-2` [Example 31, trans-8-Chloro-1-(4-cyclobutoxy-cyclohexyl)-5,6-dihydro-4H-2,3,5,10b-tetraaza-benzo[e]azulene hydrochloride], the Ki is 10.7 nM.

Regarding `CN1Cc2cc(Cl)ccc2-n2c(nnc2[C@H]2CC[C@H](OC3CCC3)CC2)C1` [Example 32, trans-8-Chloro-1-(4-cyclobutoxy-cyclohexyl)-5-methyl-5,6-dihydro-4H-2,3,5,10b-tetraaza-benzo[e]azulene], the Ki was 1.29 nM.
